{"source": "a melting point compilation (Tetko et al.; mined from patent text by program, amines drawn as free bases though some values may be those of a salt)", "data": [{"units": {"melting point": "°C"}, "values": [{"molecule": "Cc1oc(-c2ccccc2)nc1CCOc1ccc(C[C@H](NC(=O)C(F)=Cc2ccccc2)C(=O)O)cc1Br", "melting point": "243 to 245"}, {"molecule": "Cc1cc(Br)cnc1CCCCn1nnc2cc(Cc3cccnc3)cnc21", "melting point": "114 to 115"}, {"molecule": "CC(=O)Nc1nc(CCc2ccc(N)cc2)c(C(=O)O)s1", "melting point": 212}, {"molecule": "COC(=O)C=CC(=O)c1ccc(Oc2ccccc2)cc1", "melting point": "88 to 90"}, {"molecule": "Nc1ncnc2c1ncn2CCO", "melting point": 236}, {"molecule": "CCC1=C(c2cccc(F)c2)C(=O)N(c2cccc(C(F)(F)F)c2)C1", "melting point": "77.5 to 79"}, {"molecule": "CCC(=O)c1c(-c2ccncc2)[nH]c(-c2ccncc2)c1C", "melting point": "237 to 238"}, {"molecule": "CC1(C)CCSc2c(CC#Cc3ccc(C=O)cc3)cccc21", "melting point": "55 to 63"}, {"molecule": "CC1(c2ccccc2)C(=O)c2c(cc(O)c(Cl)c2Cl)C1c1ccccc1", "note": "(stereo unspecified)", "melting point": "238 to 244"}, {"molecule": "O=c1[nH]c(N2CCNC(CO)C2)cc2ccccc12", "note": "(stereo unspecified)", "melting point": "> 120"}, {"molecule": "COc1ccc(NC(=O)Nc2ccc(Cl)c(Cl)c2)cc1NC(=S)Nc1cccc(C(=O)O)c1", "melting point": "209 to 211"}, {"molecule": "Cc1nc2cccc(S(=O)(=O)n3c(CCCC(=O)O)cc4nc(Cl)ccc43)c2s1", "melting point": 225}, {"molecule": "COc1ccc(CCc2ccc(-n3c(C)nc4cnccc43)cc2)cc1OC1CCCC1", "melting point": "123 to 125"}, {"molecule": "COc1ccc(-c2nc3cc(F)ccc3s2)cc1OC(=O)c1ccccc1Cl", "melting point": 190}, {"molecule": "c1ccc(-c2cn3c(nc4ccccc43)s2)nc1", "melting point": "222 to 224"}, {"molecule": "O=C1OCC2CCC1(c1ccc(Cl)cc1Cl)O2", "note": "(stereo unspecified)", "melting point": "136 to 137"}, {"molecule": "CCOC(CNC(=S)Nc1cccc2nc(C)ccc12)OCC", "melting point": "181 to 185"}, {"molecule": "CC(C)(C)OC(=O)N1CCCN(c2c(F)c(F)nc(F)c2F)CC1", "melting point": "55 to 59"}, {"molecule": "CCOC(=O)c1[nH]c2c(C)ccc(C)c2c1C(=O)OC", "melting point": "128 to 129"}, {"molecule": "Oc1ccc(Oc2ccc(Br)cc2F)cc1", "melting point": "83.5 to 85"}, {"molecule": "COc1ccc(COC(=O)c2ccc(C(O)C(=O)O)cc2)cc1", "note": "(stereo unspecified)", "melting point": "111 to 113"}, {"molecule": "COc1cc(OC)c2c(=O)[nH]c(-c3ccc(OCCNC(C)C)c(-c4ccccc4S(C)(=O)=O)n3)nc2c1", "melting point": "178 to 180"}, {"molecule": "COC(=O)c1nc(-c2ccc(Cl)c(OC)c2F)cc(N)c1Cl", "melting point": "141 to 143"}, {"molecule": "O=S(=O)(NCCc1ccc(CCl)cc1)c1ccc(Cl)cc1", "melting point": "96 to 98"}, {"molecule": "O=C(O)c1ccc(C(=O)NOCCC23CC4CC(CC(C4)C2)C3)cc1", "melting point": "197 to 200"}, {"molecule": "COc1cc(CO)ccc1C12CC3CC(CC(C3)C1)C2", "melting point": "120 to 121"}, {"molecule": "O=C(O)C(=NOCc1ccccc1)c1csc2ccccc12", "melting point": "120 to 121"}, {"molecule": "CN1CNC(=O)NC1=O", "melting point": "252 to 254"}, {"molecule": "Cc1ccc2cc(NC(=O)c3cccc(OCc4ccc(N)nc4)c3)ccc2n1", "melting point": "189 to 192"}, {"molecule": "O=S(=O)(NCc1ccncc1)c1ccc(I)cc1", "melting point": "174 to 176"}, {"molecule": "O=C(NCc1ccc([N+](=O)[O-])cc1)c1ccc2cccnc2c1O", "melting point": "210 to 212"}, {"molecule": "COc1ccc2cc(-n3c(=O)[nH]c4ccccc43)cc(C)c2n1", "melting point": 280}, {"molecule": "CCCc1nn(C)c2c(=O)[nH]c(Cc3ccccc3NS(=O)(=O)CCCN(C)C)nc12", "melting point": "202 to 204"}, {"molecule": "CCCc1c(OCc2nc(N)c3nccnc3n2)ccc(C(C)=O)c1O", "melting point": "178 to 180"}, {"molecule": "CCN(CC)CCn1c(=O)c2cc(OC)c(OC)cc2c2cnc3cc4c(cc3c21)OCO4", "melting point": "159 to 160"}, {"molecule": "CCCNC(=S)n1nc(Oc2ncc(C(F)(F)F)cc2Cl)cc1C", "melting point": "51 to 53"}, {"molecule": "CN(C(CCn1c(=O)cc(Cl)[nH]c1=O)C(=O)NO)S(=O)(=O)c1ccc(Oc2ccncc2)cc1", "note": "(stereo unspecified)", "melting point": "163 to 165"}, {"molecule": "CCCCCCCCS(=O)(=O)CC(CS(=O)(=O)c1ccc(OC)cc1)C(=O)NO", "note": "(stereo unspecified)", "melting point": 134}, {"molecule": "Cc1c(Br)nc(Nc2ccc(C#N)cc2)c(=O)n1C", "melting point": "254 to 255"}, {"molecule": "O=C(C[C@@H](O)C(F)(F)F)N[C@H]1CC[C@H](CCN2CCN(c3nccc4c3CCO4)CC2)CC1", "melting point": 207}, {"molecule": "COC(=O)c1cc(CBr)ccc1[N+](=O)[O-]", "melting point": "55 to 56"}, {"molecule": "OC(COc1cccc2[nH]ccc12)CN1CCC(c2c[nH]c3cc(F)ccc23)CC1", "note": "(single isomer, unassigned; (+))", "melting point": "94 to 97"}, {"molecule": "CCOC(=O)C(C)(C)n1c(=O)[nH]c2ccsc2c1=O", "melting point": "156 to 157"}, {"molecule": "N#Cc1cc([N+](=O)[O-])ccc1C=C1C=CN(Cc2ccccc2[N+](=O)[O-])C=C1", "melting point": "193 to 201"}, {"molecule": "Cn1c(=O)c2c(nc3n2CC(O)CN3Cc2ccccc2)n(C)c1=O", "note": "(stereo unspecified)", "melting point": "225 to 227"}, {"molecule": "CCCCc1sc(C(N)=O)c2c1-c1nn(C)cc1CC2", "melting point": "227 to 228"}, {"molecule": "CC1(C)NC(=O)N(CCC(COc2ccc(-c3ccc(C#N)cc3)cc2)N(O)C=O)C1=O", "note": "(stereo unspecified)", "melting point": "202 to 204"}, {"molecule": "CC(C)N1C(=O)[C@@H](CCO)O[C@H](c2ccccc2Cl)c2cc(Cl)ccc21", "note": "(relative stereo)", "melting point": "188 to 189"}, {"molecule": "CC(C)(C)c1cc(C(C#N)N2CCCCC2)cc(C(C)(C)C)c1O", "note": "(stereo unspecified)", "melting point": "110 to 111"}, {"molecule": "O=C1Nc2ccc(-c3cccnc3)cc2C12CCCCC2", "melting point": "232 to 234"}, {"molecule": "CC(=NNCCCC(C)C)C(=O)O", "melting point": "118 to 125"}, {"molecule": "N#CC1C(=O)NC(=O)C12C(=O)N(Cc1ccc(Br)cc1F)c1ccccc12", "note": "(stereo unspecified)", "melting point": "208 to 210"}, {"molecule": "CC[C@H](NS(=O)(=O)c1ccc(OC)cc1)C(=O)OC", "melting point": 64}, {"molecule": "NC(=O)N1CCC[C@@H]1C#CCN1CCCC1", "melting point": "117 to 122"}, {"molecule": "O=C1NC(=O)C(n2cnc3ccccc32)=C1c1c[nH]c2ccccc12", "melting point": "310 to 320"}, {"molecule": "CC(=O)c1cc(F)c(N)c(C#N)c1F", "melting point": "182 to 184"}, {"molecule": "CC(C)(C)OC(=O)NCCc1cccc(OCCC2Oc3ccccc3N(Cc3cccc(Cl)c3)C2=O)c1", "note": "(stereo unspecified)", "melting point": "107 to 108"}, {"molecule": "CC(C)(C#N)c1cc(Cn2ccnc2)cc(C(N)=O)c1", "melting point": "149 to 150"}, {"molecule": "Cc1nc(N2CCN(CCCC(F)(F)F)C2=O)sc1C(=O)NCc1cccnc1", "melting point": "167 to 169"}, {"molecule": "CCC(CC)Nc1cc(-c2c(-c3cccc(C)c3)nc3cccnn23)ccn1", "melting point": "155 to 156"}, {"molecule": "CCOC(=O)c1c(C)noc1NS(=O)(=O)c1ccccc1-c1ccc(CC(C)C)cc1", "melting point": "133 to 134"}, {"molecule": "CCOc1cc(Cc2cnc(N)nc2N)cc2c1OC(C)(C)C=C2c1ccncc1", "melting point": "223 to 226"}, {"molecule": "CCCc1nc(C#N)c(C#N)[nH]1", "melting point": "141 to 144"}, {"molecule": "CCCCOc1ccc(Cc2nn(-c3ccccc3Cl)c(=S)o2)cc1", "melting point": 69}, {"molecule": "O=S(=O)(OS(=O)(=O)C1CCCCC1)C1CCCCC1", "melting point": "97 to 100"}, {"molecule": "O=C(NCCO[N+](=O)[O-])c1csc(C(F)(F)F)n1", "melting point": "81 to 82"}, {"molecule": "CS(=O)(=O)CCNC(=O)c1cccc(-c2ccc3c(c2)C(Oc2ccc(Cl)cc2Cl)CC3)c1", "note": "(stereo unspecified)", "melting point": "140 to 143"}, {"molecule": "Oc1cccc(-n2cnc(-c3ccccc3)c2)c1", "melting point": "195 to 197"}, {"molecule": "COC(=O)C1=C(C)NC(C)=C(C(=O)OCCCCCCOc2cc(-c3ccc4c(c3)OCO4)[nH]n2)C1c1cccc([N+](=O)[O-])c1", "note": "(stereo unspecified)", "melting point": "167 to 169"}, {"molecule": "COC(CNC(=O)N(N=Cc1ccccc1)c1cc(Cl)c(Cc2ccc(C(=O)c3ccc(Cl)cc3)cc2)c(Cl)c1)OC", "melting point": "158 to 160"}, {"molecule": "CCCCNC(=O)OC1c2nccnc2C(=O)N1c1ccc2ccc(Cl)nc2n1", "note": "(stereo unspecified)", "melting point": 264}, {"molecule": "Cn1nc(-c2ccc(Cl)cc2)nc1-c1ccncc1", "melting point": 191}, {"molecule": "N#Cc1ccc(Cc2nccc(-c3ccc(C#N)cc3)n2)cc1", "melting point": "155 to 156"}, {"molecule": "CCc1nccn1CC(=O)c1ccc(-c2ccc(N3C[C@H](Cn4ccnn4)OC3=O)cc2F)cn1", "melting point": "77 to 79"}, {"molecule": "O=c1[nH]c2ccc(CCN3CCN(c4cc(O)cc5cccnc45)CC3)cc2o1", "melting point": 200}, {"molecule": "CCCNc1nc(N)nc(N(CCC)c2ccc(OC)c(F)c2)n1", "melting point": "53 to 55"}, {"molecule": "Cc1cc(C(=CC(=O)c2ccc(Cl)cc2)C(F)(F)F)ccc1NC(=O)OC(C)(C)C", "melting point": "72 to 74"}, {"molecule": "CC(C)(C(=O)O)C(=O)NCCc1cn(C(c2ccccc2)(c2ccccc2)c2ccccc2)cn1", "melting point": "161 to 162"}, {"molecule": "CCOC(=O)C(Nc1ccc(C(=O)OC)cc1)C(=O)OCC", "melting point": "66 to 69"}, {"molecule": "Cc1cc(OCC(=O)O)cc(C)c1SCc1sc(-c2ccc(C(F)(F)F)cc2)nc1C", "melting point": "184 to 185"}, {"molecule": "CC(C)C(=O)N[C@H]1CC[C@H](CCN2CCN(c3nccc4c3CCO4)CC2)CC1", "melting point": 219}, {"molecule": "COC(=O)c1cc(-n2c(-c3ccccc3)cc3c2CCCC3)ccc1O", "melting point": "141 to 142"}, {"molecule": "CC(C)(C)c1cc(CCc2ccccc2NC(=O)NCC(C)(C)c2ccc(Cl)c(Cl)c2)cc(C(C)(C)C)c1O", "melting point": "165 to 167"}, {"molecule": "O[C@@H]1CCCN(C[C@@H]2CCN(CCc3c[nH]c4ccc(-n5cncn5)cc34)C2)[C@@H]1c1ccccc1", "melting point": "192 to 193"}, {"molecule": "O=C(N[C@@H](CNC(=O)c1ccc(C2CC2C(=O)NC2=NCCCN2)s1)C(=O)O)OCc1ccccc1", "note": "(stereo partly specified)", "melting point": 98}, {"molecule": "CC(C)c1cccc(C(C)C)c1NC(=O)CNC(c1cccc(C(F)(F)F)c1)c1cccc(C(F)(F)F)c1", "melting point": "144 to 145"}, {"molecule": "CCc1nnc(NS(=O)(=O)c2ccc(N)cc2)s1", "melting point": "190 to 191"}, {"molecule": "CC1(C)CCCN(C(=O)c2ccccc2NC(=O)CN2C(=O)c3ccccc3C2=O)C1", "melting point": 158}, {"molecule": "CCC(Oc1ccc(F)cc1)C(=O)OC1CC(O)C=C2C=CC(C)C(CCC3CC(O)CC(=O)O3)C21", "note": "(mixture of isomers)", "melting point": "149 to 150"}, {"molecule": "COC(=O)CC=C1CCC2C3CCC4=CC(=O)CCC4(C)C3CCC12C", "note": "(stereo unspecified)", "melting point": "149 to 151"}, {"molecule": "CC1(C(=O)c2c[nH]c3ncc(Br)nc23)CCCC1", "melting point": "207 to 208"}, {"molecule": "COC(=O)C1=C(C)NC(C)=C(C(=O)OCC(O)CO)C1c1cccc([N+](=O)[O-])c1", "note": "(stereo unspecified)", "melting point": "49 to 53"}, {"molecule": "CC(=O)N1Cc2cccc3c2c(cn3C)C1", "melting point": "125 to 126"}, {"molecule": "NC(=O)N1CCC(c2nn(-c3ccc(C(F)(F)F)cc3)c3cc(F)ccc23)CC1", "melting point": "148 to 150"}, {"molecule": "Cc1ccc(-c2ccc3c(c2)C=C(C(=O)Nc2ccc(CNc4cccnc4)cc2)CC3)cc1", "melting point": "212 to 214"}, {"molecule": "O=C(Nc1cc(Cl)cc(Cl)c1)c1cc(Br)cc(Br)c1O", "melting point": "181 to 182"}]}]}
